Values quoted from earlier work as cited in EP2732812A1, “Pramipexole retard tablet formulation” (Aristo Pharma GmbH, priority 2012, dated 2014).
Counter-ions that a name gives are not always drawn.

Löslichkeit In Puffer (buffer, pH-Wert von 2,0 bis 7,4): > 10 mg/mL
Löslichkeit In Wasser (in water): > 20 mg/mL
Compound: CCCN[C@H]1CCc2nc(N)sc2C1 [Pramipexoldihydrochlorid Monohydrat]
